In ChEMBL document CHEMBL4387741, “Optimization of novel reversible Bruton's tyrosine kinase inhibitors identified using Tethering-fragment-based screens” (Bioorg Med Chem, 2019):

Key:
[1] = biological target: Myosin light chain kinase (Homo sapiens) (UniProt Q32MK0); test: Inhibition of wild-type human partial length MLCK (D488 to K800 residues) expressed in bacterial expression system at 1 uM by Kinomescan method relative to control
[2] = Oral bioavailability in Sprague-Dawley rat using amorphous solid form of compound; assay type: ADME, organism-based; settings: in vivo
[3] = biological target: LIM domain kinase 1 (Homo sapiens) (UniProt P53667); test: Inhibition of wild-type human full length LIMK1 (M1 to D647 residues) expressed in bacterial expression system at 1 uM by Kinomescan method relative to control
[4] = biological target: Serine/threonine-protein kinase LATS2 (Homo sapiens) (UniProt Q9NRM7); test: Inhibition of wild-type human partial length LATS2 (Q641 to V1088 residues) expressed in mammalian expression system at 1 uM by Kinomescan method relative to control
[5] = biological target: cAMP-dependent protein kinase catalytic subunit PRKX (Homo sapiens) (UniProt P51817); test: Inhibition of wild-type human partial length PRKX (M1 to F358 residues) expressed in bacterial expression system at 1 uM by Kinomescan method relative to control
[6] = biological target: MAP kinase-activated protein kinase 5 (Homo sapiens) (UniProt Q8IW41); test: Inhibition of wild-type human partial length MAPKAPK5 (M1 to D322 residues) expressed in mammalian expression system at 1 uM by Kinomescan method relative to control
[7] = biological target: Myotonin-protein kinase (Homo sapiens) (UniProt Q09013); test: Inhibition of wild-type human partial length DMPK (V47 to V415 residues) expressed in bacterial expression system at 1 uM by Kinomescan method relative to control
[8] = biological target: Non-receptor tyrosine-protein kinase TYK2 (Homo sapiens) (UniProt P29597); test: Inhibition of wild-type human partial length TYK2 JH1 catalytic domain (V877 to C1187 residues) expressed in mammalian expression system at 1 uM by Kinomescan method relative to control
[9] = biological target: Serine/threonine-protein kinase Nek3 (Homo sapiens) (UniProt P51956); test: Inhibition of wild-type human full length NEK3 (M1 to R506 residues) expressed in mammalian expression system at 1 uM by Kinomescan method relative to control
[10] = biological target: Hepatocyte growth factor receptor (Homo sapiens) (UniProt P08581); test: Inhibition of wild-type human partial length MET (D1010 to S1367 residues) expressed in bacterial expression system at 1 uM by Kinomescan method relative to control
[11] = biological target: Serine/threonine-protein kinase RIO3 (Homo sapiens) (UniProt O14730); test: Inhibition of wild-type human full length RIOK3 (M1 to E519 residues) expressed in bacterial expression system at 1 uM by Kinomescan method relative to control
[12] = biological target: Tyrosine-protein kinase Mer (Homo sapiens) (UniProt Q12866); test: Inhibition of wild-type human partial length MERTK (R557 to L884 residues) expressed in bacterial expression system at 1 uM by Kinomescan method relative to control
[13] = biological target: BMP-2-inducible protein kinase (Homo sapiens) (UniProt Q9NSY1); test: Inhibition of wild-type human partial length BIKE (S34 to N329 residues) expressed in bacterial expression system at 1 uM by Kinomescan method relative to control
[14] = biological target: Tyrosine-protein kinase Fgr (Homo sapiens) (UniProt P09769); test: Inhibition of wild-type human partial length FGR (L233 to T529 residues) expressed in bacterial expression system at 1 uM by Kinomescan method relative to control
[15] = biological target: 3-phosphoinositide-dependent protein kinase 1 (Homo sapiens) (UniProt O15530); test: Inhibition of wild-type human full length PDPK1 (M1 to Q556 residues) expressed in bacterial expression system at 1 uM by Kinomescan method relative to control
[16] = biological target: NUAK family SNF1-like kinase 2 (Homo sapiens) (UniProt Q9H093); test: Inhibition of wild-type human partial length SNARK (P22 to A333 residues) expressed in mammalian expression system at 1 uM by Kinomescan method relative to control
[17] = biological target: Serine/threonine-protein kinase pim-3 (Homo sapiens) (UniProt Q86V86); test: Inhibition of wild-type human partial length PIM3 (G16 to A317 residues) expressed in bacterial expression system at 1 uM by Kinomescan method relative to control
[18] = biological target: Serine/threonine-protein kinase Sgk1 (Homo sapiens) (UniProt O00141); test: Inhibition of wild-type human partial length SGK (I60 to L431 residues) expressed in mammalian expression system at 10 uM by Kinomescan method relative to control
[19] = biological target: Ribosomal protein S6 kinase beta-1 (Homo sapiens) (UniProt P23443); test: Inhibition of wild-type human partial length S6K1 (M1 to S421 residues) expressed in mammalian expression system at 10 uM by Kinomescan method relative to control
[20] = biological target: Serine/threonine-protein kinase PLK2 (Homo sapiens) (UniProt Q9NYY3); test: Inhibition of wild-type human partial length PLK2 (H58 to F354 residues) expressed in mammalian expression system at 10 uM by Kinomescan method relative to control
[21] = biological target: Ribosomal protein S6 kinase alpha-5 (Homo sapiens) (UniProt O75582); test: Inhibition of wild-type human partial length C-terminal RPS6KA5 kinase domain 2 (V390 to T718 residues) expressed in bacterial expression system at 10 uM by Kinomescan method relative to control
[22] = biological target: Ephrin type-A receptor 5 (Homo sapiens) (UniProt P54756); test: Inhibition of wild-type human partial length EPHA5 (T627 to V930 residues) expressed in bacterial expression system at 10 uM by Kinomescan method relative to control
[23] = test system: Fibroblast growth factor receptor 3 (Homo sapiens), P22607 [G697C]; test: Inhibition of human partial length FGFR3 G697C mutant (R442 to S771 residues) expressed in bacterial expression system at 10 uM by Kinomescan method relative to control
[24] = biological target: Dual specificity protein kinase CLK3 (Homo sapiens) (UniProt P49761); test: Inhibition of wild-type human full length CLK3 (M1 to R490 residues) expressed in bacterial expression system at 10 uM by Kinomescan method relative to control
[25] = biological target: SRSF protein kinase 2 (Homo sapiens) (UniProt P78362); test: Inhibition of wild-type human full length SRPK2 (M1 to S686 residues) expressed in bacterial expression system at 10 uM by Kinomescan method relative to control
[26] = test system: Epidermal growth factor receptor (Homo sapiens), P00533 [G719C]; test: Inhibition of human partial length EGFR G719C mutant (R669 to V1011 residues) expressed in bacterial expression system at 10 uM by Kinomescan method relative to control
[27] = biological target: Cyclin-dependent kinase-like 2 (Homo sapiens) (UniProt Q92772); test: Inhibition of wild-type human partial length CDKL2 (M1 to D327 residues) expressed in bacterial expression system at 10 uM by Kinomescan method relative to control

Sequence of BMP-2-inducible protein kinase (Homo sapiens) (Q9NSY1 whole entry, looked up, the tested form may be a part): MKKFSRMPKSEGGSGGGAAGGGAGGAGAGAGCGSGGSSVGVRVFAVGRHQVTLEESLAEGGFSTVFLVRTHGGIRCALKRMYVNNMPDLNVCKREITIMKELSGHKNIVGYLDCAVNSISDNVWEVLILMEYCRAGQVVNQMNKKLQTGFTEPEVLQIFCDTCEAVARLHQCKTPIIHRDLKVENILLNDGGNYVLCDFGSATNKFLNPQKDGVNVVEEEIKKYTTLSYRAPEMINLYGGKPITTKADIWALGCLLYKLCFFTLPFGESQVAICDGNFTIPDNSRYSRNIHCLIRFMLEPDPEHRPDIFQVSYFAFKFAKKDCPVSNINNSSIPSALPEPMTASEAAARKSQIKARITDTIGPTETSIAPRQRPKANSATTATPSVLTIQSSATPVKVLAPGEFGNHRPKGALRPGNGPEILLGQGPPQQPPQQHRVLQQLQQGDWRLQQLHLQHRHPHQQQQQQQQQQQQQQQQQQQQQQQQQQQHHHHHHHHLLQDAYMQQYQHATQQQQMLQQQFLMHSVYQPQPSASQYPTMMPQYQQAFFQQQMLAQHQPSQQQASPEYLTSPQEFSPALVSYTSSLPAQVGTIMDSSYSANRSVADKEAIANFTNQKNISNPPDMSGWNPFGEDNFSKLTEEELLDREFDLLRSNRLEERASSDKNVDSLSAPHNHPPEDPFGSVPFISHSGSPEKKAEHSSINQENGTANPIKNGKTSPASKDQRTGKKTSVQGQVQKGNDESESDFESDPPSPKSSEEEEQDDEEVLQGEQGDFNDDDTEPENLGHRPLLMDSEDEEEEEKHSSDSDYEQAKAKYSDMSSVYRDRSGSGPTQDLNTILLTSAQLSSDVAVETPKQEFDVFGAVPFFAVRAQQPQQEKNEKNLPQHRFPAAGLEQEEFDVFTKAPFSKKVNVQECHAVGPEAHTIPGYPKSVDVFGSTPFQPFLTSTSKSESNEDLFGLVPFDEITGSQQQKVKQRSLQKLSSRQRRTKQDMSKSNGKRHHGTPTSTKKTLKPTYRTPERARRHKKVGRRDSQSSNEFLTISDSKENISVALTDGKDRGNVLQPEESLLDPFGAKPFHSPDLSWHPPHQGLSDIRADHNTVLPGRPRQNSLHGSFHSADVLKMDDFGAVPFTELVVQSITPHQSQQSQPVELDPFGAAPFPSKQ
Sequence of Serine/threonine-protein kinase Sgk1 (Homo sapiens) (O00141 whole entry, the tested form may be a part): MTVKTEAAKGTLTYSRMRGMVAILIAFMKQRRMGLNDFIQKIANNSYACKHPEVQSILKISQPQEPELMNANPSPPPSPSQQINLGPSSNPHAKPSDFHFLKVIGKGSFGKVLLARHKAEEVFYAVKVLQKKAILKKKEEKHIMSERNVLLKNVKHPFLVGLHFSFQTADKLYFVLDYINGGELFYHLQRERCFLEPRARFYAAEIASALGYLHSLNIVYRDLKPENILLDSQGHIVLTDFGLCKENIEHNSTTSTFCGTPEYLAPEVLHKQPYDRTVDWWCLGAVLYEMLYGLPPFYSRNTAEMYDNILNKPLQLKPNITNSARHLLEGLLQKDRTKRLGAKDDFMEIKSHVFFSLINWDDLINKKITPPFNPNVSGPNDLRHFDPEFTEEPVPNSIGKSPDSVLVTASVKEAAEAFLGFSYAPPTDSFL
Sequence of NUAK family SNF1-like kinase 2 (Homo sapiens) (Q9H093 whole entry, the tested form may be a part): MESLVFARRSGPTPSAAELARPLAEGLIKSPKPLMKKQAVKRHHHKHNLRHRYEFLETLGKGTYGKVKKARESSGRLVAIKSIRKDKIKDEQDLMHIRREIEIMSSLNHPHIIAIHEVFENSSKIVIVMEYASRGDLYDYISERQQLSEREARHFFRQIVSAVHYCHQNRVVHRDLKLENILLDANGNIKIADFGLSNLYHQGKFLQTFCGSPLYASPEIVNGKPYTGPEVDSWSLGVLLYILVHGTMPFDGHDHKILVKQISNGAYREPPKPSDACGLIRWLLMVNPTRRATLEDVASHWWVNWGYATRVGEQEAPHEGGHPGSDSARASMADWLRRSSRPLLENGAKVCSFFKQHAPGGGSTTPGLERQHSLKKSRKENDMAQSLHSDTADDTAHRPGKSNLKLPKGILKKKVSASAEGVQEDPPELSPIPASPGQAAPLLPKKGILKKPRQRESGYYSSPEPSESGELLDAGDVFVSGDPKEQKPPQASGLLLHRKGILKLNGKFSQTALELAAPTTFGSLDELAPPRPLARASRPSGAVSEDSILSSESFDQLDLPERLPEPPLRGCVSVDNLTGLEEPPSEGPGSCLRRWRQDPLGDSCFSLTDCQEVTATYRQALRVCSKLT
Sequence of Myotonin-protein kinase (Homo sapiens) (Q09013 whole entry, the tested form may be a part): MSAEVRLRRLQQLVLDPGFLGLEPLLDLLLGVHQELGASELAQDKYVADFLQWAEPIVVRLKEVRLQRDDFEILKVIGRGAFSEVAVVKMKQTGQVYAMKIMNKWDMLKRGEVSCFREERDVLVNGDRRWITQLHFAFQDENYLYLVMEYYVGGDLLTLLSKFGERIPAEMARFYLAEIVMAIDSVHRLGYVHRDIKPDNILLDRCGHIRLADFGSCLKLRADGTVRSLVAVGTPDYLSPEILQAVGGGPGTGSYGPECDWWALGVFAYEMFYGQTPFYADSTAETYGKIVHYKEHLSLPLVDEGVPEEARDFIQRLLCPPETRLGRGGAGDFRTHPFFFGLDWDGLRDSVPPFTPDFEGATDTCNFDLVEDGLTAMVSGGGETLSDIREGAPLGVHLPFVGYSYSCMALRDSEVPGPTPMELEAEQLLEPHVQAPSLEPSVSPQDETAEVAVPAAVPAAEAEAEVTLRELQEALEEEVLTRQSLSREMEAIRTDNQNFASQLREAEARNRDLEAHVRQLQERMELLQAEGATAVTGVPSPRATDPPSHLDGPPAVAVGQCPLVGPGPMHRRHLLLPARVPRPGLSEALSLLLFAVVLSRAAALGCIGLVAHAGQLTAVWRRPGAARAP
Sequence of MAP kinase-activated protein kinase 5 (Homo sapiens) (Q8IW41 whole entry, the tested form may be a part): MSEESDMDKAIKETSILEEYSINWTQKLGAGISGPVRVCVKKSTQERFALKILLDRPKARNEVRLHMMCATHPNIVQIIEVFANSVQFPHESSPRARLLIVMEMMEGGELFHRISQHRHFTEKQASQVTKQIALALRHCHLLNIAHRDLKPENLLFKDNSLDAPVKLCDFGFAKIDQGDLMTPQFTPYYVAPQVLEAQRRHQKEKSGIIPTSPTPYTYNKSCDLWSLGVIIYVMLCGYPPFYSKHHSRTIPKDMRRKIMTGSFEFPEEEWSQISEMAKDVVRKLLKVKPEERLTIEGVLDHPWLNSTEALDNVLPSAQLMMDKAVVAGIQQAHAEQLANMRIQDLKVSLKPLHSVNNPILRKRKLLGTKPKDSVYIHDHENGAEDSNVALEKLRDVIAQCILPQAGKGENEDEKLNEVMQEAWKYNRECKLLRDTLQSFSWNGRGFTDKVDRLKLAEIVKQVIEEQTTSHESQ
Sequence of Dual specificity protein kinase CLK3 (Homo sapiens) (P49761 whole entry, looked up, the tested form may be a part): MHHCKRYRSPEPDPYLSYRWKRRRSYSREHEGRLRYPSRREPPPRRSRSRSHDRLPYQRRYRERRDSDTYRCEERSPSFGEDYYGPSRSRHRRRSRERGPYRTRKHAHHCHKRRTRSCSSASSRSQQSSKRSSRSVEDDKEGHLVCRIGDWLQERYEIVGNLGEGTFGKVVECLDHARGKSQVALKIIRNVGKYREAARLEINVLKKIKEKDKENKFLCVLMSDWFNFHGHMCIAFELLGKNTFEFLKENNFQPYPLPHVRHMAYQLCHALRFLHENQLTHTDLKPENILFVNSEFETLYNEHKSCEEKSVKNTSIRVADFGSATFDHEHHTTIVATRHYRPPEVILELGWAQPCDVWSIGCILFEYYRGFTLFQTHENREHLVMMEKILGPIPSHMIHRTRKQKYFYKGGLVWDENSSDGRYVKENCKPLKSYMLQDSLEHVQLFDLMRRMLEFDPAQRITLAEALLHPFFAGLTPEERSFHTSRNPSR
Sequence of Non-receptor tyrosine-protein kinase TYK2 (Homo sapiens) (P29597 whole entry, the tested form may be a part): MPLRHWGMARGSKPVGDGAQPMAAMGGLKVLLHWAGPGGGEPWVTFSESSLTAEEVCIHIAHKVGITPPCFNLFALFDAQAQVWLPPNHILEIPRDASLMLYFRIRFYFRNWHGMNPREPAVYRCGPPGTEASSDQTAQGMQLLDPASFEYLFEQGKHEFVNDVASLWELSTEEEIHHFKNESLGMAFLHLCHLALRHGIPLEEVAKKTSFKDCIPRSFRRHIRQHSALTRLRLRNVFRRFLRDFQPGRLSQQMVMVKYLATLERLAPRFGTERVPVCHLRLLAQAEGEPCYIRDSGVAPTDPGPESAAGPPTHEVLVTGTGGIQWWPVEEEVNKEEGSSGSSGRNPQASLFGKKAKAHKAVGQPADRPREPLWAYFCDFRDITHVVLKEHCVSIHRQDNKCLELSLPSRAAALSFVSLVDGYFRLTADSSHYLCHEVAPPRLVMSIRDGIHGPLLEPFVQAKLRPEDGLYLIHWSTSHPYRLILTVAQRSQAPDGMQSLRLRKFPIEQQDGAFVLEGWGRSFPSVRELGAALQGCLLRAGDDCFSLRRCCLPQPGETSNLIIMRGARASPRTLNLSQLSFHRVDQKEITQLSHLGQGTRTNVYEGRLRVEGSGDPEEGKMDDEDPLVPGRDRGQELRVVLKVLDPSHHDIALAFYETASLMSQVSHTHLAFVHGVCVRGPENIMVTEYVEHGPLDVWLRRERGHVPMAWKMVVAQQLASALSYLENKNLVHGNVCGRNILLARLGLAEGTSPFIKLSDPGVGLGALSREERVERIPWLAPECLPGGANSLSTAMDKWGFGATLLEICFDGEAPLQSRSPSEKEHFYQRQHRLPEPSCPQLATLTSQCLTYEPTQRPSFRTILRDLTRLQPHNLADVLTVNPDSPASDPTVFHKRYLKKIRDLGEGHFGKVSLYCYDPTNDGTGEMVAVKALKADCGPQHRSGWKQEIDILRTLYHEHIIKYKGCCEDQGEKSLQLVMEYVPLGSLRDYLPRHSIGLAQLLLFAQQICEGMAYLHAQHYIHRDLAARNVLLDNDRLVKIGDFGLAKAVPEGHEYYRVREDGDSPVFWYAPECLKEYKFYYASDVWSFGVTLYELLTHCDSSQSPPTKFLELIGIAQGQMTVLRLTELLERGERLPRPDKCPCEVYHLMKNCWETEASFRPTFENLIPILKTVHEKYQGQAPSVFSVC

## O=C(Nc1cccc([C@@H]2CN(c3ncnc4[nH]ccc34)CCN2CCO)c1)Nc1c(F)cccc1N1CCCC1
[1]
  inhibition: 100%
[2]
  bioavailability: 12%
[3]
  inhibition: 85%
[4]
  inhibition: 86%
[5]
  inhibition: 95%
[6]
  inhibition: 100%
[7]
  inhibition: 100%
[8]
  inhibition: 0%
[9]
  inhibition: 65%
[10]
  inhibition: 95%
[11]
  inhibition: 26%
[12]
  inhibition: 31%
[13]
  inhibition: 39%
[14]
  inhibition: 77%
[15]
  inhibition: 34%
[16]
  inhibition: 6.1%
[17]
  inhibition: 89%

## O=C(Nc1cccc([C@H]2CCCN(c3ncnc4[nH]ccc34)C2)c1)Nc1ccccc1N1CCCC1
[18]
  inhibition: 26%
[19]
  inhibition: 23%
[20]
  inhibition: 78%
[21]
  inhibition: 75%
[22]
  inhibition: 97%
[23]
  inhibition: 53%
[24]
  inhibition: 87%
[25]
  inhibition: 53%
[26]
  inhibition: 86%
[27]
  inhibition: 38%
